Assay results taken from PubChem BioAssay AID179 (DTP/NCI, 2004).
Activity calls are given as the source filed them.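 The calls were made as follows: active = compounds giving half or more protection of infected cells from virus-caused growth loss, again on retest; inactive = the rest.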 Where a SMILES comes first, the peptide text is derived from it. The star is where a group is joined. Boc = CC(C)(C)OC(=O)*; Bn = c1ccc(C*)cc1

Test system: CEM cells HIV-1 protection, formazan growth assay
Test: NCI AIDS Antiviral Assay
Details: for IC50: measured here: growth of uninfected CEM cells
Summary of the method: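 Protection of CEM cells against HIV-1 measured as cell growth via soluble formazan read-out, with five concentrations tested on both infected and uninfected cells; failure to protect may reflect toxicity.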

SMILES | EC50 [µM] | IC50 [µM] | outcome
N#CCCC(CCC#N)(CCC#N)NO | > 200 | > 200 | –
Nc1nc2cc(Cl)ccc2n1N | > 200 | > 200 | –
O=C(CCl)N1CCN(c2ccccn2)CC1 | > 1050 | – | –
C=CC[C@@H]1C(=O)[C@@]2(O[Si](C(C)C)(C(C)C)C(C)C)CC[C@@H]1C[C@H]2NC(=O)OCC(Cl)(Cl)Cl | > 200 | > 200 | –
Cc1cccc(C)c1NC(=O)C(=O)C(c1ccccc1Cl)S(=O)(=O)Cc1ccccc1Cl (stereo not drawn) | 151 | > 200 | –
COc1ccccc1/C=C(/C(C)=O)C(=O)c1ccccc1 | > 25.7 | > 25.7 | –
COc1nc(NC2OCC(OC(C)=O)C(OC(C)=O)C2OC(C)=O)c(C(=O)CCl)c(=O)n1C (stereo not drawn) | – | – | inactive
O=C(/C=C/c1cc(O)ccc1O)OCCc1ccccc1 | > 45.7 | 6.17 | –
O=C1NC(Cc2ccc(O)cc2)C(=O)N2CCCC12 (stereo not drawn) | > 955 | > 955 | –
C1=C\C=C\C2OC2/C=C/1 (stereo not drawn) | > 224 | 112 | –
O=C(O)c1ccc2c3c(n[se]c13)-c1ccccc1C2=O | > 8.32 | > 8.32 | –
O=C1C/C(=C/c2ccc(/C=C3/CC(=O)N(c4cccc(Br)c4)C3=O)cc2)C(=O)N1c1cccc(Br)c1 | > 11.2 | > 11.2 | –
Cc1nc(NC(=S)NC(=O)c2ccc(Cl)c(Cl)c2)sc1C(=O)/C=C/c1ccccc1[N+](=O)[O-] | > 19.1 | > 19.1 | –
CC(/C=C/c1ccccc1)=N\N=C(C)\C=C\c1ccccc1 | > 13.2 | > 13.2 | –
CN(C)c1ncnc2c1ncn2C1OC(CO)C(O)C1O (stereo not drawn) | – | – | inactive
N#Cc1sc2c(c1OC(=O)c1ccccc1)c(=O)n(-c1ccccc1)c(=S)n2-c1ccccc1 | > 200 | 2.34 | –
COc1ccc(NC(=O)CC(=O)N/N=C/c2ccc(N(CCC#N)S(=O)(=O)c3ccccc3)cc2)cc1 | > 251 | > 251 | –
O=[N+]([O-])c1ccc(Sc2ccc([N+](=O)[O-])cc2)cc1 | – | – | inactive
Oc1ccc(-c2nc3ccccc3s2)c(O)c1 | > 148 | 27.5 | –
Cc1nc(Nc2ccc(Cl)c(Cl)c2)sc1C(=O)/C=C/c1ccc2c(c1)OCO2 | > 200 | 13.5 | –
Cc1cccc2c1CC(C1OC(=O)c3ccccc31)C2=O (stereo not drawn) | > 100 | > 100 | –
COc1cc2c(cc1OC)C(=O)N1CSCC1C(=O)S2 (stereo not drawn) | > 50.1 | > 50.1 | –
CCCCCCNC(=O)CNC(=O)c1ccccc1SC(=O)CCCC[n+]1ccccc1 | > 200 | 34.7 | –

SMILES | EC50 [µM] | IC50 [µM] | outcome
CN(C)CCN(C)CCC(=O)/C=C/c1ccccc1 | – | – | inactive
COc1cc2c3c(c1)nnn3C(=O)CS2 | > 200 | > 200 | –
O=C(CS)NCCNC(=O)CS | > 25.1 | > 25.1 | –
C[C@H](NC(=O)n1c2ccccc2c2ccccc21)C(=O)O | > 891 | 234 | –
CCN(CC)CCN1C(=O)c2cccc3cc(N)cc(c23)C1=O | > 200 | 8.13 | –
CC[N+](C)(CC)CCSC1=Nc2ccccc2N=C(c2ccc(Sc3ccccc3)cc2)C1 | > 200 | 6.76 | –
COC(=O)C(CC(C)C)NC(=O)CNC(=O)C(Cc1ccc(OCc2ccccc2)cc1)NC(=O)C(COCc1ccccc1)NC(=O)OC(C)(C)C (stereo not drawn) (Boc-S(Bn)Y(Bn)GL-OMe; configuration not given here) | > 200 | 115 | –
Cc1ccnc(NS(=O)(=O)c2ccc(N=Cc3ccccc3O)cc2)n1 | > 200 | > 200 | –
COc1ccc(N2C(=O)C3c4[nH]c5c(C)cccc5c4C4CCC(C(C)C)CC4C3C2=O)cc1 (stereo not drawn) | > 200 | 23.4 | –
Cc1cc([N+](=O)[O-])c(C)c2c1[nH]c1ccc(/C(CCC3CCCC3)=N\N)cc12 | > 10 | > 10 | –
Nc1c(F)c(F)c2c(c1F)N(CCCCCl)c1ccccc1S2 | > 200 | 21.9 | –
COc1cc(NS(C)(=O)=O)ccc1NCc1c2ccccc2nc2ccccc12 | – | – | inactive
O=C(c1cccc(C(=O)N(c2ccccc2)c2ccccc2)n1)N(c1ccccc1)c1ccccc1 | > 11.2 | > 11.2 | –
CC(=O)c1c2n(n(-c3ccccc3)c1=O)C(=O)c1nccnc1-2 | > 200 | > 200 | –
COc1ccc(-c2oc(=O)c3ccccc3c2-c2ccccc2)cc1 | > 15.8 | > 15.8 | –
CCCNC(=S)N/N=C/c1cccc(C)n1 | > 200 | 11 | –
COc1cc2c(cc1O)C1(Cc3ccc4c(c3C1=O)OCO4)N(C)CC2 (stereo not drawn) | > 200 | > 200 | –
C#CCN(N=O)C(=O)NC(CCCNC(=O)OCc1ccccc1)C(=O)OCc1ccccc1 (stereo not drawn) | > 28.8 | > 28.8 | –
O=c1cc/c(=N/O)c(=O)/c1=N\O | 17.4 | 151 | –
C=C(Nc1ccc(OC)cc1OC)C(=O)Cc1cccc[n+]1[O-] | > 794 | > 794 | –
FC(F)(F)C12C34C=CC5(CCC6(C=CC1(CC3)O6)C52C(F)(F)F)O4 (stereo not drawn) | – | – | inactive
CNC(=O)N(C)CN(C)C(=O)NC | > 479 | 229 | –
